Laboratory results reported in article PMC6934184, “Selective DNA-PKcs inhibition extends the therapeutic index of localized radiotherapy and chemotherapy” (The Journal of Clinical Investigation, 2019).

Target: T1, STK38L (NDR2) (Homo sapiens, UniProt Q9Y2H1)
T1 construct: purchased Thermo Fisher Scientific (Life Technologies) SelectScreen
Assay: SelectScreen LanthaScreen
Format: binding
Conditions: read-out: % displacement
In short: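 NU5455 was profiled across the SelectScreen Broad panel of kinase activity and binding assays. Z'LYTE reactions such as CSF1R ran at apparent Km ATP, while the Adapta CAMK1 assay used ATP listed as 10. Values are given as percent.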

T1 sequence (Q9Y2H1 whole entry): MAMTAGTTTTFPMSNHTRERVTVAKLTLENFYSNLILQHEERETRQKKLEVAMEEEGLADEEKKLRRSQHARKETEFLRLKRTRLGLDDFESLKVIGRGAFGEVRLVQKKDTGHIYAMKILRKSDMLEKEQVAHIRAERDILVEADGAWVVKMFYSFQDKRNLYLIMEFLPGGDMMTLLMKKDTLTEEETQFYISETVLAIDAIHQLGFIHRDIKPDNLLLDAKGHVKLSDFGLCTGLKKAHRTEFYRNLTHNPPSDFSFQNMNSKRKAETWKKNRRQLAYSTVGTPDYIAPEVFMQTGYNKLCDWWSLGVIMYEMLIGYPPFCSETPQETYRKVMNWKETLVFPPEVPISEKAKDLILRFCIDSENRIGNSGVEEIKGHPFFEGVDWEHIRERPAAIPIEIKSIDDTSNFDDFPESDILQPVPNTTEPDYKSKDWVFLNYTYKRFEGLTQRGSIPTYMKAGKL

CN(C(=O)CN1CCOCC1)c1ccc2sc3c(-c4cccc5c(=O)cc(N6CC7CCC(C6)O7)oc45)cccc3c2c1 [NU5455]
inhibition at 1 µM: -8.4%
